In patent EP0606463B1, “NEUROMEDIN B RECEPTOR ANTAGONISTS” (The Administrators of The Tulane Educational Fund, priority 1992, dated 1994):
Where a SMILES comes first, the peptide text is derived from it. Bridges are numbered along the chain shown (N, C = ends). [ ]: non-standard residue; d: D form. 2Nal = N[C@@H](Cc1ccc2ccccc2c1)C(=O)O; d2Nal = N[C@H](Cc1ccc2ccccc2c1)C(=O)O

Tests used:
[1] = tested on: benzodiazepine-neural; test: Neural benzodiazepine membrane receptor assay; type: binding, rat; details: at 1 µM
[2] = biological target: T1, CCKB (Rattus norvegicus, UniProt P30553); test: CCKB membrane receptor assay; type: binding; details: at 1 µM
T1 construct: rat cerebral cortex (CCKB, PYY, neurotensin); from tissue; host or cells: rat cerebral cortex membranes

[3] = biological target: T2, NMB receptors on C-6 glioblastoma cells (Rattus norvegicus, UniProt P24053); test: NMB-stimulated [3H]IP in C-6 glioblastoma cells; type: cell-based
T2 construct: endogenous in cells; host or cells: rat glioblastoma C-6 cells
T2 sequence (P24053 1-390): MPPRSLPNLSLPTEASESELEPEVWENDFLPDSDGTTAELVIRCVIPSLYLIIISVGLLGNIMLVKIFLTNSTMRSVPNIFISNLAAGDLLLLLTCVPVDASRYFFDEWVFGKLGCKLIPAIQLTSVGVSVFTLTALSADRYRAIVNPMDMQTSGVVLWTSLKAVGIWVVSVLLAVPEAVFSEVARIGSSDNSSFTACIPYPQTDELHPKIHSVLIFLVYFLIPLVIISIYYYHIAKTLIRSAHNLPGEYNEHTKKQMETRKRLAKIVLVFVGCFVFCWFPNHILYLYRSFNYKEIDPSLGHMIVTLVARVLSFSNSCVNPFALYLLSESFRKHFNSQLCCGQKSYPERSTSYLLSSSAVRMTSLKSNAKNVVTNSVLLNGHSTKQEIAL
Procedure: Total phosphoinositides in C-6 cells and in NMB-R transfected cells were determined as described previously, with minor modifications [Benya, R. V. et al. Mol. Pharmacol. 42:1058 (1992); and Wang, L-H. et al. Biochem. J. 286:641 (1992)]. Cells were grown to confluence in 24-well plates and then loaded with 100 µCi/ml myo-[2-^3H]inositol in Dulbecco's modified essential medium with 2% fetal bovine serum at 37°C for 48 hrs. Cells were washed and incubated in phosphoinositide buffer (standard buffer additionally containing 10 mM LiCl, 20 mM HEPES, 2 mM CaCl2, 2% BSA, and 1.2 mM MgSO4) for 15 min and then […] Reactions were halted using ice-cold 1% HCl in methanol, and the inositol phosphates (IP) were isolated as described previously [Bologna, M. et al. Cancer 63:1714 (1989); and Endo, T. et al. J. Endocrinol. 131:313 (1991)]. Briefly, after loading of the anion exchange column, free [^3H]glycerophosphorylinositol was removed by washing with 5 mM disodium tetraborate in 60 mM sodium formate. Total [^3H]inositol phosphates were then eluted using 100 mM formic acid in 1.0 M ammonium formate as described previously [Benya, R. V. et al. Mol. Pharmacol. 42:1058 (1992); and Wang, L-H. et al. Biochem. J. 286:641 (1992)].

[4] = biological target: T3, histamine H1 (Cavia porcellus, UniProt P31389); test: histamine H1 membrane receptor assay; type: binding, guinea pig; details: at 1 µM
T3 construct: guinea pig cerebral (N1, histamine H1, and sigma opioid membrane receptor assays); from tissue; host or cells: guinea pig cerebral membranes

[5] = biological target: T4, rat NMB receptor (Rattus norvegicus, UniProt P24053); test: Binding of 125I-[D-Tyr0]NMB to NMB-R transfected BALB 3T3 cells; details: for fold greater affinity for the NMB than the GRP receptors: NMB-R transfected cells versus GRP receptors on rat pancreatic acini
T4 construct: a full length NMB-preferring bombesin receptor clone generated from rat esophagus; expressed in transfected cells; host or cells: BALB 3T3 cells
T4 sequence (P24053 1-390): T2 sequence (P24053 1-390)

[6] = biological target: T5, delta opioid (Rattus norvegicus, UniProt P33533); test: delta opioid membrane assay; type: binding; details: at 1 µM
T5 construct: rat forebrain (TRH, mu and delta opioid membrane assays); from tissue; host or cells: rat forebrain membranes

[7] = tested on: bradykinin1; test: Bradykinin membrane receptor assay; type: binding; details: at 1 µM
[8] = biological target: T6, CCKA receptors (Rattus norvegicus, UniProt P30551); test: CCKA receptor assay (125I-CCK-8, rat pancreatic membranes); type: binding; details: at 1 µM
T6 construct: rat pancreas (CCKA receptor assay); from tissue; host or cells: rat pancreatic membranes
T6 sequence (P30551 whole entry): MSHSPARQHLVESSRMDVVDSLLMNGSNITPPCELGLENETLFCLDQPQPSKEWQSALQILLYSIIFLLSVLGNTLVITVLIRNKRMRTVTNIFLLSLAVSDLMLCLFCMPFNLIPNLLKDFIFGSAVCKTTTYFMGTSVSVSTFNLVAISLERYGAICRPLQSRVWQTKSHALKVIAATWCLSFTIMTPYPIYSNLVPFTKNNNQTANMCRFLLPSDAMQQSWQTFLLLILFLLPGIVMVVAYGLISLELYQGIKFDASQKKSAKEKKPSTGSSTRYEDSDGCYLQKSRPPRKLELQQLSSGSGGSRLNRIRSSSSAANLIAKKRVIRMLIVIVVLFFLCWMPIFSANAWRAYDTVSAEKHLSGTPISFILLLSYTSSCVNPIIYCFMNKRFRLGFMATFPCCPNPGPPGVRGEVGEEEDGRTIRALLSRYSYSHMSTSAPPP

T5 sequence (P33533 whole entry): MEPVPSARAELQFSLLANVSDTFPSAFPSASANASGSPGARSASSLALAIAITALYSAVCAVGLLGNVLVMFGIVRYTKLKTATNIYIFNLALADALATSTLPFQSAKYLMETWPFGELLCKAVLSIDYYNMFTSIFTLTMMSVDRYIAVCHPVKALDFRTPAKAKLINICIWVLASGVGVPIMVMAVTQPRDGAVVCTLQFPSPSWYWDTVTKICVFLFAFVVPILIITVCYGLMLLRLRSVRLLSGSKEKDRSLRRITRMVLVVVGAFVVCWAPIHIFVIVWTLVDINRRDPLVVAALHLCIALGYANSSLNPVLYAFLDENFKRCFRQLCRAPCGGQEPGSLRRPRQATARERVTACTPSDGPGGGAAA
T3 sequence (P31389 whole entry): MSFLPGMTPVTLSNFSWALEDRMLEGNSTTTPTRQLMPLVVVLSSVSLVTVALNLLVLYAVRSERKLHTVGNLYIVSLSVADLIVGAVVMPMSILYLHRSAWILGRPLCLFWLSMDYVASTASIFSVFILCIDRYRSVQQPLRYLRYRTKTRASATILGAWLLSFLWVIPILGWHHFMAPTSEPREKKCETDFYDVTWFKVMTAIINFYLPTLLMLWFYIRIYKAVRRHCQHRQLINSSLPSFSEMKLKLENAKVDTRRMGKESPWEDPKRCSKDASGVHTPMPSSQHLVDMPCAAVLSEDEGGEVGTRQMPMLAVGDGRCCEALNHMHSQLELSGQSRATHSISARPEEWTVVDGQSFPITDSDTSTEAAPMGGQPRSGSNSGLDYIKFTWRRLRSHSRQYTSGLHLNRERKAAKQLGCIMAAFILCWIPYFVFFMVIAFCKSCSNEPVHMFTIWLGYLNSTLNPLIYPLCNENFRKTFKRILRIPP
T1 sequence (P30553 whole entry): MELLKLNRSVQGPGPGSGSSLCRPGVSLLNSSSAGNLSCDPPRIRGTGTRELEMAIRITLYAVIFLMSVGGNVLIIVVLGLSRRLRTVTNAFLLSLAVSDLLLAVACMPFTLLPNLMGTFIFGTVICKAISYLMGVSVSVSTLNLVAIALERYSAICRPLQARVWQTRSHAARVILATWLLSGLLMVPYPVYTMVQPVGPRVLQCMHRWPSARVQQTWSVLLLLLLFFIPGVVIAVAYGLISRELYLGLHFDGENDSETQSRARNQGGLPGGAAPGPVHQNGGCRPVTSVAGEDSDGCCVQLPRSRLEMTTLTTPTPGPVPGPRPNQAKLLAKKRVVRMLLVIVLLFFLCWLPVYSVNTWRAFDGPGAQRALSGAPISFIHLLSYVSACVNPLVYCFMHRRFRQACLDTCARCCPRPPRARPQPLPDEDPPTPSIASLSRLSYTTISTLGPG

## CC(C)[C@@H]1NC(=O)[C@H](CCCCN)NC(=O)[C@@H](Cc2c[nH]c3ccccc23)NC(=O)[C@H](Cc2ccc(O)cc2)NC(=O)[C@@H](NC(=O)[C@H](N)Cc2ccc3ccccc3c2)CSSC[C@@H](C(=O)N[C@@H](Cc2ccc3ccccc3c2)C(N)=O)NC1=O [Analog #1, D-Nal-Cys-Tyr-D-Trp-Lys-Val-Cys-Nal-NH2] (H-[d2Nal]CY[dW]KVC[2Nal]-NH2; disulfide 2-7; N-terminus assumed)
[1]
  inhibition of binding to benzodiazepine-neural: did not inhibit binding
[2]
  inhibition of binding to CCKB: did not inhibit binding
[3]; C-6 glioblastoma cells, analog 10 µM plus NMB 10 nM
  [^3H]IP, Peptide Added NMB (10 nM): 7.5 ± 1.0 dpm x 10^3
[3]; C-6 glioblastoma cells, analog 10 µM, no agonist, control 7.2±1.0
  [^3H]IP, Peptide Added None: 7.4 ± 1.3 dpm x 10^3
[3]; Table 3
  effect on NMB-stimulated increases in [^3H]IP in C-6 glioblastoma cells: inhibited
[4]
  inhibition of binding to histamine H1: did not inhibit binding
[5]; NMB-R transfected cells
  complete inhibition of binding of ^125I-[Tyr^0]NMB at: 3 µM
[5]
  fold greater affinity for the NMB than the GRP receptors: 84 fold
[5]; listed as cyclo SS-octa
  fold greater affinity for the NMB than the GRP receptors: 100 fold
[5]; NMB-R transfected cells, lowest concentration with detectable inhibition
  detectible inhibition of binding of ^125I-[Tyr^0]NMB at: 0.1 µM
[6]
  inhibition of binding to delta opioid: did not inhibit binding
[7]
  inhibition of binding to bradykinin1: did not inhibit binding
[8]
  inhibition of binding to CCKA: did not inhibit binding
